Tests used:
CHK1 kinase = target: T1, CHK1 kinase (Homo sapiens, UniProt O14757); experiment: Measurement of the CHK1 kinase activity (flashplate / filter binding method); type: biochemical; conditions: class symbols defined in table footnotes
T1 construct: glutathione S-transferase (GST); made in house; host or cells: Sf21 (S. frugiperda) insect cells, baculovirus expression vector
T1 sequence (O14757 1-476): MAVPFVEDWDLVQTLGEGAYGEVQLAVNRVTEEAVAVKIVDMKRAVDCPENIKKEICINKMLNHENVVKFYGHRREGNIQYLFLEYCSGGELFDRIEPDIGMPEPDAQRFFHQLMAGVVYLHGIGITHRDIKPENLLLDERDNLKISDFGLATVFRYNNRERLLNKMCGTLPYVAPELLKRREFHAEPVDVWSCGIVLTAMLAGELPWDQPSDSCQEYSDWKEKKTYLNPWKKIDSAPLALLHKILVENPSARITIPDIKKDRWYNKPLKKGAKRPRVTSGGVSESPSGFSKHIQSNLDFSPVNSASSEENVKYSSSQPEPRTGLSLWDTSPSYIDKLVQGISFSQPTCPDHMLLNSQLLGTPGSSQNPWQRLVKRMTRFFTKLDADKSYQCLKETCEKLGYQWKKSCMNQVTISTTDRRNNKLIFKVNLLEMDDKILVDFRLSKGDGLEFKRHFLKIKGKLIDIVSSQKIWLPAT
Experimental: CHK1 kinase is expressed for the purposes of protein production in insect cells (Sf21; S. frugiperda) and subsequent purification by affinity chromatography as fusion protein with glutathione S-transferase in a baculovirus expression vector. The cultivation, infection and digestion of the cells as well as the purification of the fusion protein by column chromatography are carried out in accordance with manufacturer-oriented generic working instructions.
The kinase activity is measured using various available measurement systems. In the scintillation proximity method (Sorg et al., J. of. Biomolecular Screening, 2002, 7, 11-19), the flashplate method or the filter binding test, the radioactive phosphorylation of a protein or peptide as substrate is measured using radioactively labelled ATP (γ^32P-ATP, (γ^33P-ATP). In the case of the presence of an inhibitory compound, a reduced radioactive signal, or none at all, can be detected. Furthermore, homogeneous time-resolved fluorescence resonance energy transfer (HTR-FRET) and fluorescence polarisation (FP) technologies are useful as assay methods (Sills et al., J. of Biomolecular Screening, 2002, 191-214).
The test plates used are 384-well streptavidin-coated Flashplates Plus® from Perkin Elmer (Cat. No. SMP410A001 PK). The assay plate is equilibrated with 75 μl of assay buffer per well 30 min before commencement of the experiment. The buffer is sucked out before commencement of the experiment, and the components of the kinase reaction described below are pipetted onto the plate.
CHK1 kinase, a biotinylated substrate peptide (for example CHKtide: […]), is incubated with radioactively labelled ATP in the presence and absence of test substances at […] and a total volume of 50 μl. The reaction is terminated using 25 μl of a 0.2 M EDTA solution. After incubation for 30 min at room temperature, the supernatants are filtered off with suction, and the wells are washed three times with 100 μl of 0.9% NaCl solution each time. The measurement of the bound radioactivity is carried out by means of a scintillation measuring instrument (Topcount NXT, Perkin-Elmer).
The full value used is the inhibitor-free kinase reaction. This should be approximately in the range 3000-4000 cpm. The pharmacological zero value used is staurosporin in a final concentration of 0.1 μM. The inhibitory values (IC50) are determined using the program RS1_MTS ( ).
Kinase reaction conditions per well:
0.15 μg of CHKtide ([…])
50 μl total volume (1-fold assay buffer reaction conditions)
5-20 mU of CHK1 kinase (diluted in 20 mM MOPS pH7.5, 1 mM EDTA, 0.1% β-mercaptoethanol, 0.01% Brij-35, 5% glycerol, 1 mg/ml of BSA) are incubated for 30 min at room temperature in the presence of 30-200 μM CHKtide in 25.5 μl in 1-fold reaction buffer (8 mM MOPS pH7, 0.2 mM EDTA, 10 mM magnesium acetate, 0.02 mM γ^33P-ATP [500-1000 cpm/pmol]). The reaction is stopped using 5 μl of 0.5 M ortho-phosphoric acid and filtered through P81 filter plates. After the filter plates have been washed a number of times, the bound radioactivity is determined in a scintillation counter.

SMILES | melting point [°C] | IC50 (CHK1 kinase) [nM]
O=c1c(NCc2cccc(O)c2)c(Nc2ccc(O)c(-c3ccccc3)c2)c1=O [Compound A2, 3-(3-Hydroxybenzylamino)-4-(4-hydroxy-3-phenylphenylamino)cyclobut-3-ene-1,2-dione] |  | > 1000
C[C@@H](Nc1c(Nc2ccc(O)c(-c3ccccn3)c2)c(=O)c1=O)c1ccccc1 [Compound A3, 3-(4-Hydroxy-3-pyridin-2-ylphenylamino)-4-[(R)-1-phenylethylamino]cyclobut-3-ene-1,2-dione] |  | > 1000
COc1cccc([C@@H](C)Nc2c(Nc3ccc(O)c(-c4ccccn4)c3)c(=O)c2=O)c1 [Compound A4, 3-(4-Hydroxy-3-pyridin-2-ylphenylamino)-4-[(R)-1-(3-methoxyphenyl)ethylamino]cyclobut-3-ene-1,2-dione] |  | > 1000
C[C@@H](Nc1c(Nc2cccc(-c3ccccn3)c2)c(=O)c1=O)c1cccc(O)c1 [Compound A6, 3-(3-Pyridin-2-ylphenylamino)-4-[(R)-1-(3-hydroxyphenyl)ethylamino]cyclobut-3-ene-1,2-dione] |  | > 1000
C[C@H](Nc1c(Nc2ccc(O)c(-c3ccccn3)c2)c(=O)c1=O)c1cccc(O)c1 [Compound A10, 3-(4-Hydroxy-3-pyridin-2-ylphenylamino)-4-[(S)-1-(3-hydroxyphenyl)ethylamino]cyclobut-3-ene-1,2-dione] |  | > 1000
O=c1c(NCc2cccc(O)c2)c(Nc2ccc(O)c(-c3ccncc3)c2)c1=O [Compound A23, 3-(3-Hydroxybenzylamino)-4-(4-hydroxy-3-pyridin-4-ylphenylamino)cyclobut-3-ene-1,2-dione] |  | < 1000
O=c1c(NCCc2cccc(O)c2)c(Nc2ccc(O)c(-c3ccccn3)c2)c1=O [Compound A60, 3-[2-(3-Hydroxyphenyl)ethylamino]-4-(4-hydroxy-3-pyridin-2-ylphenylamino)cyclobut-3-ene-1,2-dione] |  | < 1000
O=c1c(NCc2cc(O)cc(O)c2)c(Nc2ccc(O)c(-c3ccccn3)c2)c1=O [Compound A63, 3-(3,5-Dihydroxybenzylamino)-4-(4-hydroxy-3-pyridin-2-ylphenylamino)cyclobut-3-ene-1,2-dione] |  | < 100
CC(=O)Nc1cccc(CNc2c(Nc3ccc(O)c(-c4ccccn4)c3)c(=O)c2=O)c1 [Compound A64, 3-(3-Acetamidobenzylamino)-4-(4-hydroxy-3-pyridin-2-ylphenylamino)cyclobut-3-ene-1,2-dione] |  | < 1000
O=c1c(NCc2ccc(F)c(O)c2)c(Nc2ccc(O)c(-c3ccccn3)c2)c1=O [Compound A65, 3-(4-Fluoro-3-hydroxybenzylamino)-4-(4-hydroxy-3-pyridin-2-ylphenylamino)cyclobut-3-ene-1,2-dione] |  | < 1000
CNS(=O)(=O)c1cccc(CNc2c(Nc3ccc(O)c(-c4ccccn4)c3)c(=O)c2=O)c1 [Compound A67, 3-(3-Methylaminosulfonylbenzylamino)-4-(4-hydroxy-3-pyridin-2-ylphenylamino)cyclobut-3-ene-1,2-dione] |  | < 1000
CN(Cc1cccc(O)c1)c1c(Nc2ccc(O)c(-c3ccccn3)c2)c(=O)c1=O [Compound A68, 3-[(3-Hydroxybenzyl)methylamino]-4-(4-hydroxy-3-pyridin-2-ylphenylamino)cyclobut-3-ene-1,2-dione] |  | < 1000
COc1ccc(Nc2c(NCc3cccc(O)c3)c(=O)c2=O)cc1-n1ccnc1 [Compound A72, 3-(3-Hydroxybenzylamino)-4-(3-imidazol-1-yl-4-methoxyphenylamino)cyclobut-3-ene-1,2-dione] |  | > 1000
O=c1c(NCc2cccc(O)c2)c(Nc2ccc(O)c(-n3ccnc3)c2)c1=O [Compound A74, 3-(3-Hydroxybenzylamino)-4-(3-imidazol-1-yl-4-hydroxyphenylamino)cyclobut-3-ene-1,2-dione] |  | > 1000
O=c1c(NCc2cccc(O)c2)c(Nc2ccc(O)c(-n3cccn3)c2)c1=O [Compound A75, 3-(3-Hydroxybenzylamino)-4-(4-hydroxy-3-pyrazol-1-ylphenylamino)cyclobut-3-ene-1,2-dione] |  | < 1000
COc1cccc([C@@H](C)Nc2c(Nc3ccc(O)c(-n4cccn4)c3)c(=O)c2=O)c1 [Compound A76, 3-(4-Hydroxy-3-pyrazol-1-ylphenylamino)-4-[(R)-1-(3-methoxyphenyl)ethylamino]cyclobut-3-ene-1,2-dione] |  | < 1000

Results, then the compound that gave them:

melting point [°C] | IC50 (CHK1 kinase) [nM] | SMILES
271 to 272 | < 100 | O=c1c(NCc2cccc(O)c2)c(Nc2ccc(O)c(-c3ccccn3)c2)c1=O [Compound A1, 3-(3-hydroxybenzylamino)-4-(4-hydroxy-3-pyridin-2-ylphenylamino)cyclobut-3-ene-1,2-dione]
 | < 100 | C[C@@H](Nc1c(Nc2ccc(O)c(-c3ccccn3)c2)c(=O)c1=O)c1cccc(O)c1 [Compound A5, 3-(4-Hydroxy-3-pyridin-2-ylphenylamino)-4-[(R)-1-(3-hydroxyphenyl)ethylamino]cyclobut-3-ene-1,2-dione]
 | < 1000 | NS(=O)(=O)c1cccc(CNc2c(Nc3ccc(O)c(-c4ccccn4)c3)c(=O)c2=O)c1 [Compound A12, 3-(3-Aminosulfonylbenzylamino)-4-(4-hydroxy-3-pyridin-2-ylphenylamino)cyclobut-3-ene-1,2-dione]
 | > 1000 | COc1cccc([C@H](C)Nc2c(Nc3ccc(O)c(-c4ccccn4)c3)c(=O)c2=O)c1 [Compound A59, 3-(4-Hydroxy-3-pyridin-2-ylphenylamino)-4-[(S)-1-(3-methoxyphenyl)ethylamino]cyclobut-3-ene-1,2-dione]
 | < 100 | O=c1c(NCc2ccc(O)c(O)c2)c(Nc2ccc(O)c(-c3ccccn3)c2)c1=O [Compound A61, 3-(3,4-Dihydroxybenzylamino)-4-(4-hydroxy-3-pyridin-2-ylphenylamino)cyclobut-3-ene-1,2-dione]
 | > 1000 | COc1cc(CNc2c(Nc3ccc(O)c(-c4ccccn4)c3)c(=O)c2=O)ccc1F [Compound A62, 3-(4-Fluoro-3-methoxybenzylamino)-4-(4-hydroxy-3-pyridin-2-ylphenylamino)cyclobut-3-ene-1,2-dione]
 | < 1000 | NC(=O)c1cccc(CNc2c(Nc3ccc(O)c(-c4ccccn4)c3)c(=O)c2=O)c1 [Compound A66, 3-(3-Aminocarbonylbenzylamino)-4-(4-hydroxy-3-pyridin-2-ylphenylamino)cyclobut-3-ene-1,2-dione]
 | > 1000 | O=c1c(NCc2cccc(O)c2)c(Nc2ccc(O)c(-n3cccc3)c2)c1=O [Compound A73, 3-(3-Hydroxybenzylamino)-4-(4-hydroxy-3-pyrrol-1-ylphenylamino)cyclobut-3-ene-1,2-dione]

Source: patent US20080312244A1, “Squaric Acid Derivatives as Protein Kinase Inhibitors” (priority 2005, published 2008)
